From patent publication US20070287680A1, “Combined Active and Passive Targeting of Biologically Active Agents” (University of Utah Research Foundation, priority 2004, published 2007)
“Also recorded” adds a separate entry of the source.

How the values were obtained:
Format in all cases: cell-based
[1] = tested on: nucleus (DAPI nuclear marker); test: Confocal fluorescence microscopy, subcellular localization; details: 24 hours incubation at 37° C.
Protocol: Subcellular localization was determined using confocal fluorescence microscopy. 150000 cells were seeded on previously sterilized glass coverslips in 35 mm dishes 24 hours before incubation with the drug. […] The cells were then fixed with 3% paraformaldehyde for 20 minutes at room temperature. DAPI (4′,6-diamidino-2-phenylindole) (600 nM) was incubated with the cells and used as a nuclear marker. The cells were mounted with SlowFade Light Antifade medium (Molecular Probes, Eugene, Oreg.) and sealed as described previously. The cells were then imaged on a Zeiss (Thornwood, N.Y.) LSM 510 confocal imaging system with an Axioplan 2 microscope (100× plan-apo objective, NA=1.4, oil) and a titanium sapphire multiphoton laser (mesochlorin, excitation 800 nm, emission 650 nm low pass filter; DAPI, excitation 800 nm, emission 461 nm band pass filter). The settings for all the confocal systems were adjusted so that control cells yielded dark images.
In these images, DAPI is represented by […] fluorescence. […] Mce6 is stained red in color. […] These two windows separately indicate the subcellular localization of Mce6 and DAPI respectively. These 2 windows are superimposed in window D to display a composite image.

[2] = biological target: T1, green fluorescent protein tagged-GR (GFP-GR) (Rattus norvegicus, UniProt P06536, C656G); test: GFP-GR system, biorecognition (nuclear translocation of GFP tagged GR); details: fluorescence microscopy, 37° C., Mce6 at 20 μM and 30 μM, images up to 30 minutes
T1 construct: expressed in transfected cells
T1 sequence (P06536 1-795 C656G): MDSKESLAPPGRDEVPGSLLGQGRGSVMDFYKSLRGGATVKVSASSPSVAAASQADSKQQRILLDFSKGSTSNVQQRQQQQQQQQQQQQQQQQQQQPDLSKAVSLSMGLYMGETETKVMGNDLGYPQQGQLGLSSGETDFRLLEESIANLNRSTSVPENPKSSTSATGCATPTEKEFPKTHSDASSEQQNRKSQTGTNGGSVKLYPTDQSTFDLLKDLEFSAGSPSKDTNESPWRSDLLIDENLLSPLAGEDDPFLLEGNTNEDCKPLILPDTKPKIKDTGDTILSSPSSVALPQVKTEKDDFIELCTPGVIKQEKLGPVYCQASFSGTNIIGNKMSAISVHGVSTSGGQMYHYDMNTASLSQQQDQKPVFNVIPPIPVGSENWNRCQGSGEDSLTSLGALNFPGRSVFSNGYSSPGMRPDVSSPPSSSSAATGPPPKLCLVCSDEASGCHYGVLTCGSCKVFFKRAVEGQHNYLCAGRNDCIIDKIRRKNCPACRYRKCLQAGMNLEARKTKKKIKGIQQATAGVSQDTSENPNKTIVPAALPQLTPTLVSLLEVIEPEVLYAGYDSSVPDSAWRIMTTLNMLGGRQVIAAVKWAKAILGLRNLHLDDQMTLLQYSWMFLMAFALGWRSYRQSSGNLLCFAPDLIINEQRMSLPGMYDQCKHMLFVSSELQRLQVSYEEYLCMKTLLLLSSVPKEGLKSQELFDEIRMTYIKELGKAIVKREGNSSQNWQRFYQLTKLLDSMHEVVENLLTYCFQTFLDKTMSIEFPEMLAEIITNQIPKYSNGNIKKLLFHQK
Protocol: This system involves the generation of GFP labeled GR in the cell. The cells are then treated with the drug and the change in the localization of the fluorescently tagged GR is followed. Cells were transfected with GFP-GR plasmids as previously. Briefly, 5×10^6 cells were transfected with 2 μg of the GFP-GR plasmid plus carrier DNA using an Electrosquare porator ECM 830 system (BTX, San Diego, Calif.). The electroporation was performed using 3 pulses each of 135 V for 10 milliseconds, […]. Cells were allowed to recover on ice for 5 minutes and were then diluted with phenol red-free DMEM with 10% charcoal stripped FBS and plated on a clear cover glass (Corning no. 1, 22 mm^2) into live cell chambers (Lab-Tek II chambered cover glass with cover). These cells were incubated in cell culture conditions for 24 hrs. […] The import of GFP-receptor-conjugate complexes was monitored using an Olympus IX701F inverted fluorescence microscope and an EGFP filter set (Chroma Technology Corp.) (exciter 480 nm, emitter 510 nm, beam splitter 495 nm). Cells were maintained at 37° C. using a Nevtek ASI 400 Air Stream Incubator (variable temperature control) attached to a temperature probe as previously. Cells were photographed using an F-View Monochrome CCD camera.

[3] = tested on: murine adenocarcinoma (1471.1) cells; test: Cytotoxicity after illumination, WST-8 assay; details: incubated 4 hours, DMEM with 10% charcoal stripped FBS, illuminated 30 min, Mce6 equivalents, read-out: IC50 (μM) (Mean ± SD)
Protocol: The IC50 (concentration that inhibits growth by 50%) was determined utilizing a WST-8 assay. Four thousand cells were seeded into 96 well plates and incubated overnight in a humidified atmosphere containing 5% CO2. […] The incubation period was 10 hours in the case of the HPMA copolymer-bound Mce6 conjugates. After the period of incubation, the media containing the drug was removed and 100 μL of fresh media was added and the cells were promptly illuminated for 30 min. The light source was three ENH Tungsten halogen lamps (120 V/250 W) placed in parallel, attenuated by three band-pass interference filters (Melles Griot Co., Carlsbad, Calif.). The light energy was approximately 2 mW cm^−2 as determined using a radiometer.
After illumination, the cells were incubated in a humidified atmosphere containing 5% CO2 for 24 hours. The media was replaced with 100 μL fresh media containing 10 μL of WST-8. After two hours incubation, the absorbance was read at 450 nm with background correction at 630 nm. Untreated cells served as 100% viable cells, whereas media served as background. Percentage of viable cells was calculated by dividing the mean absorbance of each well by the absorbance of the untreated cells. Linear regression was performed utilizing the linear portion of the growth inhibition curve to determine the IC50 dose.

[4] = tested on: GR; test: MMTV luciferase assay; details: data not shown
[5] = listed as Cort-Lys-Mce6 derivative

Row | Substance | subcellular localization of Mce6 fluorescence ([1]; disodium salt) | redistribution of GFP tagged GR from the cytoplasm to the nucleus ([2]; disodium salt) | IC50 [3] [µM] | ability to bind the GR and induce nuclear translocation [4] | subcellular localization of Mce6 fluorescence [1] | subcellular localization of Mce6 fluorescence [1, 5] | redistribution of GFP tagged GR from the cytoplasm to the nucleus [2] | redistribution of GFP tagged GR from the cytoplasm to the nucleus [2, 5]
1 | Mesochlorin e6 monoethylene diamine disodium salt [Mce6, reference compound] | faint Mce6 fluorescence in the nucleus; also recorded: predominantly located in the cytoplasm | cannot cause redistribution of the GFP tagged GR; also recorded: did not induce any change in the localization of the receptors | 5.3 ± 0.93 |  |  |  |  | 
2 | alpha-N-(Cortisol-C17-carbamoyl)-Lysyl-Mesochlorin ethyl amide [Cort-Lys-Mce6] |  |  | 1.96 ± 0.17 | independently verified | located in the cytoplasm and in the nucleus | colocalization of Mce6 and DAPI | increase in the fluorescence level in the nucleus | able to shuttle GFP tagged GR from the cytoplasm to the nucleus
